According to PubChem BioAssay (NCI):
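Grown in 96-well plates, cells were treated for 48 hours with each compound at five concentrations. Insufficient inhibition: endpoint recorded as highest concentration tested. At the GI50, growth is halved. TGI marks complete inhibition of growth.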

Columns and labels:
Assay in all cases: inhibition of tumour cell growth, NCI panel, 48 h
[1] = test system: A549 NSCLC
[2] = test system: HCC-2998 colon
[3] = test system: HCT-116 colon
[4] = test system: HCT-15 colon
[5] = test system: HL-60(TB) leukemia
[6] = test system: KM12 colon
[7] = test system: LOX IMVI melanoma
[8] = test system: OVCAR-8 ovarian
[9] = test system: SK-MEL-28 melanoma
[10] = test system: SR leukemia

SMILES	GI50 [1] [µM]	TGI [1] [µM]	GI50 [2] [µM]	TGI [2] [µM]	GI50 [3] [µM]	TGI [3] [µM]	GI50 [4] [µM]	TGI [4] [µM]	GI50 [5] [µM]	TGI [5] [µM]	GI50 [6] [µM]	TGI [6] [µM]	GI50 [7] [µM]	TGI [7] [µM]	GI50 [8] [µM]	TGI [8] [µM]	GI50 [9] [µM]	TGI [9] [µM]	GI50 [10] [µM]	TGI [10] [µM]
C=C1C(=O)O[C@H]2[C@H]1CC/C(Cn1cc(CNC(=O)c3cc4ccccc4[nH]3)nn1)=C\CC[C@@]1(C)O[C@@H]21	22.1	46.5	14	31.5	1.59	3.56	10.2	27.4	2.45	5.79	11.4	26.7	1.82	4.06	4.69	17.2	2.18	4.69	2.69	25.7
COc1cc(C2C3=C(COC3=O)N(CCO)c3cc4c(cc32)CCC4)cc(OC)c1OC (configuration not stated)	0.13	> 32.5	0.0693	0.164	0.0919	0.409	0.199	> 32.5	0.0842		0.0707	0.29	0.166	> 32.5	0.118	> 32.5	1.24	> 32.5	0.0692	> 32.5
COc1ccc(C2CC(c3cccc(Nc4ccnc5cc(Cl)ccc45)c3)=NN2c2ccc(Cl)cc2)cc1 (configuration not stated)	4.7	> 100	3.41	15.1	2.27	19.2	2.3	18.7	4.78	26.9	0.713	23.9	1.3	13.6	5	91	7.07	66.9	4.29	32.5
COc1cc2c(cc1Nc1nc(Nc3ccsc3C(N)=O)c3cc[nH]c3n1)N(C(=O)CN(C)C)CCC2	0.636	3.92	0.2	2.27	0.458	3.79	1.87	> 25	0.00552	1.09	0.529	2.66	0.58	3.66	0.842	> 11.2	1.8	5.69	0.0123	3.44
C#Cc1cccc(NC(=O)Nc2cccc(NC(=O)CCl)c2)c1	> 82.5	> 82.5	> 82.5	> 82.5	20.9	> 82.5	11.8	26.7	18.6	73.9	58.6	> 82.5	13.2	27	23.1	> 82.5	> 82.5	> 82.5	12.9	> 82.5
O=C1/C(=C/c2ccc([N+](=O)[O-])s2)Oc2ccc(Cl)cc21	0.533	2.45	0.515	1.33	0.222	0.535	0.192	0.55	0.423	2.15	0.24	0.593	0.239	0.598	0.33	4.91	0.336	0.881	0.204	0.73
COc1ccc(C2CC(c3ccc(OC)c(OC)c3)=NN2C(=O)c2cc(OC)c(OC)c(OC)c2)cc1 (configuration not stated)	2.88	> 100	1.85	4.77	2.23	> 100	1.76	> 100	2.4	> 32	2.31	> 63.1	2.47	> 100	3.96	> 100	68.5	> 100	2.07	> 100
Cn1cc(C2=C(c3cn(CCCSC(=N)N)c4ccccc34)C(=O)NC2=O)c2ccccc21	4.73	12.9	3.05	8.89	1.1	4.62	4.71	11.1	0.789	2.14	2.07	5.97	1.91	5.45	4	11.4	1.3	4.48	0.585	1.69
Cc1nn(-c2ccccc2)c2ncc3c(c12)C(=O)N(Cc1ccccc1)C3=O	5.25	> 100	> 100	> 100	1.21	6.67	> 100	> 100	> 100	> 100	> 100	> 100	4.58	> 100	5.14	> 100	> 100	> 100	5.86	> 100
Cn1c([N+](=O)[O-])cnc1/C=C1\Oc2ccc(Cl)cc2C1=O	1.95	5.88	2.02	4.68	0.247	0.793	0.251	1.04	0.511	4.67	0.36	1.47	0.25	0.825	0.33		1.14	5.14	0.0676	
CCCCc1ccc(C(N)=O)nc1	> 100	> 100	> 100	> 100	> 100	> 100	> 100	> 100	> 100	> 100	> 100	> 100	> 100	> 100	> 100	> 100	> 100	> 100	> 100	> 100
Cn1c(N)cc(=O)nc1N		> 100		> 100		> 100		> 100		> 100		> 100		> 100		> 100		> 100		> 100
COC(=O)c1cc2c([nH]c3ccccc32)c(-c2nc3cc(N(S(=O)(=O)c4ccc(C)cc4)S(=O)(=O)c4ccc(C)cc4)c(OC)cc3cc2CO)n1	> 100	> 100	> 100	> 100	> 100	> 100	> 100	> 100	31.7	75.7	> 100	> 100	> 100	> 100	> 100	> 100	> 100	> 100	1.28	3.48
O=C(CN1C(=O)c2ccccc2C1=O)NC1(C(=O)O)CCCC1		> 100		> 100		> 100		> 100		> 100		> 100		> 100		> 100		> 100		> 100
CCOC(=O)C(Cc1ccc(N(CCCl)CCCl)cc1)NC(=O)C(CC(C)C)NC(C)=O (configuration not stated)	1.73	25.6	1.82	5.95	1.06	3.56	2.22	> 27.8	0.304	1.9	4.35	18.8	0.296	2.23	1.02	5.18	1.61	3.82	0.0344	6.89
CC1SC(c2cccc(Oc3ccccc3)c2)N(CCc2cccs2)C1=O (configuration not stated)	0.864	3.67	1.88	5.75	0.457	1.76	1.08	3.77	1.17	6.56	0.626	2.49	0.883	2.11	1.49	5.06	1.42	2.78	0.585	4.19
